# From patent publication US20230414569A1, “ORAL CANINE FEED AND METHODS FOR CONTROLLING FLEA INFESTATIONS IN A CANINE” (In the Bowl Animal Health, Inc., priority 2021, published 2023)
# What was measured:
# [1] = Plasma concentration in dogs after daily oral liquid dosing (Example 1); format: in vivo; details: dog plasma, individual canines, 0.75 mg/kg/day oral days 0-29; Day -1 (pre-dose)
# Method: Each dog in the treatment group is to receive by mouth a liquid formulation of isoxazoline. The dosage of 0.75 mg/kg is to be administered to the dogs on each of days 0-29.
# Dogs in the control group are not to receive isoxazoline or any other flea control treatment. Each dog in the treatment group is to be offered its daily ration (dry food) and the individual doses of liquid formulation are to be administered after the individual dog has eaten at least 25% of its total daily ration. After receiving the dose of isoxazoline, the dogs are to be allowed to continue eating. This mimics incorporating the isoxazoline in feed. Each dog in the treatment group and the control group is to be experimentally infested with 100 unfed adult fleas on test days 2, 5, 12, 20 and 35. Comb counts for live adult fleas are to be conducted on days 4, 7, 14, 21 and 37.
# [2] = Plasma levels in dogs given medicated daily feed at different dosage levels (Example 6); format: in vivo, dog; parameters: unit not given here
# Source text: Methods: A pool of dogs are to be preliminarily infested with ˜50 unfed adult R. sanguineus ticks in order to produce dogs that can suitably sustain a reliable infestation rate, defined as approximately 25% of attached ticks being live at the end of a 72-hour period. The 24 dogs with the highest live attached tick counts are to be selected for inclusion in the study. The 18 dogs with the highest live attached tick counts are to be randomly assigned to one of a control group and 2 treatment groups. The 6 dogs with the next highest live attached tick counts are to be assigned to a third treatment group.
# The dogs are to be housed individually during the study period and are to have ad libitum access to water.
# Each dog in a treatment group (test groups 2-4) is to receive a medicated daily feed from study days 0-49. The medicated daily feed is to be offered to the dogs for 1 hour on each of days 0-49 according to test groups listed in TABLE 7.
# Blood is to be drawn at 0, 1, 3, 6, 10, 24, 48, 96, 168, 240 and 336 hours after the initial dose of isoxazoline is administered.
smiles,measurement,setting,value
"O=C(CNC(=O)c1sc(C2=NO[C@@](c3cc(Cl)c(F)c(Cl)c3)(C(F)(F)F)C2)c2c1CCC2)NCC(F)F [Mivorilaner, 3-[(5S)-5-(3,5-dichloro-4-fluorophenyl)-5-(trifluoromethyl)-4,5-dihydroisoxazol-3-yl]-N-[2-[(2,2-difluoroethyl)amino]-2-oxoethyl]-5,6-dihydro-4H-cyclopenta[c]thiophene-1-carboxamide]",Mivorilaner Concentration,[1],BLQ
same,average plasma concentration of isoxazoline,"[2]; Group 2 - 106 mg/kg feed (anticipated 1 mg/kg daily), 1 hr",49.98
same,average plasma concentration of isoxazoline,"[2]; Group 2 - 106 mg/kg feed (anticipated 1 mg/kg daily), 3 hr",292.00
same,average plasma concentration of isoxazoline,"[2]; Group 2 - 106 mg/kg feed (anticipated 1 mg/kg daily), 6 hr",539.00
same,average plasma concentration of isoxazoline,"[2]; Group 2 - 106 mg/kg feed (anticipated 1 mg/kg daily), 10 hr",505.40
same,average plasma concentration of isoxazoline,"[2]; Group 2 - 106 mg/kg feed (anticipated 1 mg/kg daily), 24 hr",458.60
same,average plasma concentration of isoxazoline,"[2]; Group 2 - 106 mg/kg feed (anticipated 1 mg/kg daily), 48 hr",771.83
same,average plasma concentration of isoxazoline,"[2]; Group 2 - 106 mg/kg feed (anticipated 1 mg/kg daily), 96 hr",1570.50
same,average plasma concentration of isoxazoline,"[2]; Group 2 - 106 mg/kg feed (anticipated 1 mg/kg daily), 168 hr",2156.67
same,average plasma concentration of isoxazoline,"[2]; Group 2 - 106 mg/kg feed (anticipated 1 mg/kg daily), 240 hr",3003.33
same,average plasma concentration of isoxazoline,"[2]; Group 2 - 106 mg/kg feed (anticipated 1 mg/kg daily), 336 hr",3290.00
same,average plasma concentration of isoxazoline,"[2]; Group 3 - 106 mg/kg feed (anticipated 1 mg/kg daily), 1 hr",40.41
same,average plasma concentration of isoxazoline,"[2]; Group 3 - 106 mg/kg feed (anticipated 1 mg/kg daily), 3 hr",264.83
same,average plasma concentration of isoxazoline,"[2]; Group 3 - 106 mg/kg feed (anticipated 1 mg/kg daily), 6 hr",467.50
same,average plasma concentration of isoxazoline,"[2]; Group 3 - 106 mg/kg feed (anticipated 1 mg/kg daily), 10 hr",419.17
same,average plasma concentration of isoxazoline,"[2]; Group 3 - 106 mg/kg feed (anticipated 1 mg/kg daily), 24 hr",435.17
same,average plasma concentration of isoxazoline,"[2]; Group 3 - 106 mg/kg feed (anticipated 1 mg/kg daily), 48 hr",781.83
same,average plasma concentration of isoxazoline,"[2]; Group 3 - 106 mg/kg feed (anticipated 1 mg/kg daily), 96 hr",1596.67
same,average plasma concentration of isoxazoline,"[2]; Group 3 - 106 mg/kg feed (anticipated 1 mg/kg daily), 168 hr",2406.67
same,average plasma concentration of isoxazoline,"[2]; Group 3 - 106 mg/kg feed (anticipated 1 mg/kg daily), 240 hr",3026.67
same,average plasma concentration of isoxazoline,"[2]; Group 3 - 106 mg/kg feed (anticipated 1 mg/kg daily), 336 hr",3516.67
same,average plasma concentration of isoxazoline,"[2]; Group 4 - 318 mg/kg feed (anticipated 3 mg/kg daily), 1 hr",143.75
same,average plasma concentration of isoxazoline,"[2]; Group 4 - 318 mg/kg feed (anticipated 3 mg/kg daily), 3 hr",846.50
same,average plasma concentration of isoxazoline,"[2]; Group 4 - 318 mg/kg feed (anticipated 3 mg/kg daily), 6 hr",1265.67
same,average plasma concentration of isoxazoline,"[2]; Group 4 - 318 mg/kg feed (anticipated 3 mg/kg daily), 10 hr",1198.17
same,average plasma concentration of isoxazoline,"[2]; Group 4 - 318 mg/kg feed (anticipated 3 mg/kg daily), 24 hr",1021.17
same,average plasma concentration of isoxazoline,"[2]; Group 4 - 318 mg/kg feed (anticipated 3 mg/kg daily), 48 hr",2011.67
same,average plasma concentration of isoxazoline,"[2]; Group 4 - 318 mg/kg feed (anticipated 3 mg/kg daily), 96 hr",3928.33
same,average plasma concentration of isoxazoline,"[2]; Group 4 - 318 mg/kg feed (anticipated 3 mg/kg daily), 168 hr",6461.67
same,average plasma concentration of isoxazoline,"[2]; Group 4 - 318 mg/kg feed (anticipated 3 mg/kg daily), 240 hr",8696.67
same,average plasma concentration of isoxazoline,"[2]; Group 4 - 318 mg/kg feed (anticipated 3 mg/kg daily), 336 hr",11600.00
